Assay results as given in ChEMBL document CHEMBL3098008, “Lactam based 7-amino suberoylamide hydroxamic acids as potent HDAC inhibitors” (Bioorg Med Chem Lett, 2014).

Tested on: not listed separately
Assay: Cytotoxicity against human H460 cells
Assay type: functional, cell-based
Conditions: NCI-H460

| SMILES | IC50 |
| --- | --- |
| O=C(CCCCC[C@H](NC(=O)[C@H]1CCC(=O)N1)C(=O)Nc1ccccc1)NO | 4 µM |
| O=C(CCCCC[C@H](NC(=O)[C@@H]1CCC(=O)N1)C(=O)Nc1ccccc1)NO | 5.4 µM |
| O=C(CCCCC[C@H](NC(=O)C1CCCNC1=O)C(=O)Nc1ccccc1)NO (stereo partly drawn) | 5.1 µM |
| O=C(CCCCC[C@H](NC(=O)C1CCNC1=O)C(=O)Nc1ccccc1)NO (stereo partly drawn) | 4 µM |
| O=C(CCCCC[C@H](NC(=O)C1C(=O)NCC1c1ccccc1)C(=O)Nc1ccccc1)NO (stereo partly drawn) | 2.4 µM |
| O=C(CCCCC[C@H](NC(=O)[C@@H]1CC(=O)N1)C(=O)Nc1ccccc1)NO | 2.2 µM |
| O=C(CCCCCCC(=O)NC1CCCC1)NO | 21 µM |
| O=C(CCCCC[C@H](NC(=O)[C@@H]1CCCC(=O)N1)C(=O)NC1CCCC1)NO | 2.4 µM |
| O=C(CCCCCCC(=O)NCCc1ccccc1)NO | 18.2 µM |

Target: T1, Histone deacetylase 11 (Homo sapiens, UniProt Q96DB2)
T1 sequence (Q96DB2 whole entry): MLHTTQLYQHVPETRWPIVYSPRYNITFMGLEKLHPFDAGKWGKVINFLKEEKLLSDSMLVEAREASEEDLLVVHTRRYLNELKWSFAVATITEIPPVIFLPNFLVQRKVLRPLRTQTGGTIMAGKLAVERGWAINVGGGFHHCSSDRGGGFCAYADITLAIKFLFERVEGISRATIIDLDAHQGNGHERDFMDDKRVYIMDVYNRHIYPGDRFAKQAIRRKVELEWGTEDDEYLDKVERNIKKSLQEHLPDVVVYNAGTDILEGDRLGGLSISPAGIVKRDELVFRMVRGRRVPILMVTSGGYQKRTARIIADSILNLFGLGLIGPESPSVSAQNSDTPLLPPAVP
Assay: Inhibition of human HDAC11 using RHKK(Ac) as substrate by fluorimetric analysis
Conditions: not given

| SMILES | IC50 |
| --- | --- |
| O=C(CCCCC[C@H](NC(=O)[C@H]1CCC(=O)N1)C(=O)Nc1ccccc1)NO | 75 nM |
| O=C(CCCCC[C@H](NC(=O)[C@@H]1CCC(=O)N1)C(=O)Nc1ccccc1)NO | 37 nM |
| O=C(CCCCC[C@H](NC(=O)C1CCCNC1=O)C(=O)Nc1ccccc1)NO (stereo partly drawn) | 255 nM |
| O=C(CCCCC[C@H](NC(=O)C1CCNC1=O)C(=O)Nc1ccccc1)NO (stereo partly drawn) | 150 nM |
| O=C(CCCCC[C@H](NC(=O)C1C(=O)NCC1c1ccccc1)C(=O)Nc1ccccc1)NO (stereo partly drawn) | 70 nM |
| O=C(CCCCC[C@H](NC(=O)[C@@H]1CC(=O)N1)C(=O)Nc1ccccc1)NO | 135 nM |
| O=C(CCCCCCC(=O)NC1CCCC1)NO | 2630 nM |
| O=C(CCCCC[C@H](NC(=O)[C@@H]1CCCC(=O)N1)C(=O)NC1CCCC1)NO | 1440 nM |
| O=C(CCCCCCC(=O)NCCc1ccccc1)NO | 1130 nM |

Target: T2, Polyamine deacetylase HDAC10 (Homo sapiens, UniProt Q969S8)
T2 sequence (Q969S8 whole entry): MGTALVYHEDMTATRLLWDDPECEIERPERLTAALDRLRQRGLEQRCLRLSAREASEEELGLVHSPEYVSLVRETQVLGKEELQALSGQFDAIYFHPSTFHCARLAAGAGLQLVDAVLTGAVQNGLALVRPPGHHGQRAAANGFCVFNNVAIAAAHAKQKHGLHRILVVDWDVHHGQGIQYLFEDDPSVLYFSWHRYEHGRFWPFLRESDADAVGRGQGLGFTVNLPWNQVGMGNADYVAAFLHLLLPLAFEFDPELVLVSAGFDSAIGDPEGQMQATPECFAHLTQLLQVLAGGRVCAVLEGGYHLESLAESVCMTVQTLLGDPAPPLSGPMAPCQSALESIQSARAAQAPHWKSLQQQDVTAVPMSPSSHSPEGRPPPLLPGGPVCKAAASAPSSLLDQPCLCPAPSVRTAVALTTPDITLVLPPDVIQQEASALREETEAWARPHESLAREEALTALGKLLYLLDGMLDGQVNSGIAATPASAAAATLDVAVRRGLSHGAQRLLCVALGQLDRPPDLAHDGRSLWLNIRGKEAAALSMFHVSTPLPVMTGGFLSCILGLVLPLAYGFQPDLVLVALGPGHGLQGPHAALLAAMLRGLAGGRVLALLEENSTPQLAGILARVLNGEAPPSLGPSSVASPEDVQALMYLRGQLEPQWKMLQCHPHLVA
Assay: Inhibition of human HDAC10 using RHKK(Ac) as substrate by fluorimetric analysis
Conditions: not given

| SMILES | IC50 |
| --- | --- |
| O=C(CCCCC[C@H](NC(=O)[C@H]1CCC(=O)N1)C(=O)Nc1ccccc1)NO | 93 nM |
| O=C(CCCCC[C@H](NC(=O)[C@@H]1CCC(=O)N1)C(=O)Nc1ccccc1)NO | 125 nM |
| O=C(CCCCC[C@H](NC(=O)C1CCCNC1=O)C(=O)Nc1ccccc1)NO (stereo partly drawn) | 244 nM |
| O=C(CCCCC[C@H](NC(=O)C1CCNC1=O)C(=O)Nc1ccccc1)NO (stereo partly drawn) | 147 nM |
| O=C(CCCCC[C@H](NC(=O)C1C(=O)NCC1c1ccccc1)C(=O)Nc1ccccc1)NO (stereo partly drawn) | 88 nM |
| O=C(CCCCC[C@H](NC(=O)[C@@H]1CC(=O)N1)C(=O)Nc1ccccc1)NO | 113 nM |
| O=C(CCCCCCC(=O)NC1CCCC1)NO | 4890 nM |
| O=C(CCCCC[C@H](NC(=O)[C@@H]1CCCC(=O)N1)C(=O)NC1CCCC1)NO | 6830 nM |
| O=C(CCCCCCC(=O)NCCc1ccccc1)NO | 1350 nM |

Target: T3, Protein deacetylase HDAC6 (Homo sapiens, UniProt Q9UBN7)
T3 sequence (Q9UBN7 whole entry): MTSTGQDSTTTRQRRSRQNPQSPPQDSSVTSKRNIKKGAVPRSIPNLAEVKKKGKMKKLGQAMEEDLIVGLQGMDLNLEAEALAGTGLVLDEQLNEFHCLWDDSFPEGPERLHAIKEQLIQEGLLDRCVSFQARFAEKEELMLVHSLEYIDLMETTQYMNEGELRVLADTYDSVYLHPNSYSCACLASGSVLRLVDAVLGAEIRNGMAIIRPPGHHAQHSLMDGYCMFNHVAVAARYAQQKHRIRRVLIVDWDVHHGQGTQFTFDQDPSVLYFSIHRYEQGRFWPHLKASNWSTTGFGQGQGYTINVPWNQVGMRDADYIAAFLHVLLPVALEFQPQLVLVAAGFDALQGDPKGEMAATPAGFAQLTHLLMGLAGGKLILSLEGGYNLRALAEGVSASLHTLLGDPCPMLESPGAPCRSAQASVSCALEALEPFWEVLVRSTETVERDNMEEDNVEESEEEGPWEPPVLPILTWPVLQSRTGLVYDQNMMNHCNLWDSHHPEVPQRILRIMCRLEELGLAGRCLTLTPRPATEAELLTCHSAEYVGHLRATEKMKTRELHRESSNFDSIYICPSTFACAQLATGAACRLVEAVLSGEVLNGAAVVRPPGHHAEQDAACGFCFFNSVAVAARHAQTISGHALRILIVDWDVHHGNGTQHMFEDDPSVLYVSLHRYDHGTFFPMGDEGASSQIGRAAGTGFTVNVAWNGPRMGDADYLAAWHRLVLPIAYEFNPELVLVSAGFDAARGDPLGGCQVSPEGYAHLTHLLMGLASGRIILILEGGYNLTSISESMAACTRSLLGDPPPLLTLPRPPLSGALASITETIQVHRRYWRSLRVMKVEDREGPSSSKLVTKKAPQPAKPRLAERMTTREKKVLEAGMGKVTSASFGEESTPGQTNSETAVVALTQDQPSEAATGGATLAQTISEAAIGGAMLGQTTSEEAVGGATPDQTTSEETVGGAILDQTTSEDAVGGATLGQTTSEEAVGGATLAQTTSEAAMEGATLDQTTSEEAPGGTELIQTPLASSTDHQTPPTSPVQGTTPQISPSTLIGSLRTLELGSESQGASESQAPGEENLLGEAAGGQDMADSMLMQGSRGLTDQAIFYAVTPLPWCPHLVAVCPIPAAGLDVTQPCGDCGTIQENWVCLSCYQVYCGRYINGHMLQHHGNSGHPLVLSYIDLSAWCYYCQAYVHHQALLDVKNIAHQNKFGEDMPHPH
Assay: Inhibition of human HDAC6 using RHKK(Ac) as substrate by fluorimetric analysis
Conditions: not given

| SMILES | IC50 |
| --- | --- |
| O=C(CCCCC[C@H](NC(=O)[C@H]1CCC(=O)N1)C(=O)Nc1ccccc1)NO | 8 nM |
| O=C(CCCCC[C@H](NC(=O)[C@@H]1CCC(=O)N1)C(=O)Nc1ccccc1)NO | 6 nM |
| O=C(CCCCC[C@H](NC(=O)C1CCCNC1=O)C(=O)Nc1ccccc1)NO (stereo partly drawn) | 19 nM |
| O=C(CCCCC[C@H](NC(=O)C1CCNC1=O)C(=O)Nc1ccccc1)NO (stereo partly drawn) | 4 nM |
| O=C(CCCCC[C@H](NC(=O)C1C(=O)NCC1c1ccccc1)C(=O)Nc1ccccc1)NO (stereo partly drawn) | 4 nM |
| O=C(CCCCC[C@H](NC(=O)[C@@H]1CC(=O)N1)C(=O)Nc1ccccc1)NO | 3 nM |
| O=C(CCCCCCC(=O)NC1CCCC1)NO | 75 nM |
| O=C(CCCCC[C@H](NC(=O)[C@@H]1CCCC(=O)N1)C(=O)NC1CCCC1)NO | 31 nM |
| O=C(CCCCCCC(=O)NCCc1ccccc1)NO | 25 nM |

Target: Histone deacetylase 3/Nuclear receptor corepressor 2 (HDAC3/NCoR2) (Homo sapiens, UniProt O15379)
Assay: Inhibition of human HDAC3/NCOR2 using RHKK(Ac) as substrate by fluorimetric analysis
Assay type: protein-complex assay
Conditions: not given

Histone deacetylase 3/Nuclear receptor corepressor 2 (HDAC3/NCoR2), sequence (O15379 whole entry): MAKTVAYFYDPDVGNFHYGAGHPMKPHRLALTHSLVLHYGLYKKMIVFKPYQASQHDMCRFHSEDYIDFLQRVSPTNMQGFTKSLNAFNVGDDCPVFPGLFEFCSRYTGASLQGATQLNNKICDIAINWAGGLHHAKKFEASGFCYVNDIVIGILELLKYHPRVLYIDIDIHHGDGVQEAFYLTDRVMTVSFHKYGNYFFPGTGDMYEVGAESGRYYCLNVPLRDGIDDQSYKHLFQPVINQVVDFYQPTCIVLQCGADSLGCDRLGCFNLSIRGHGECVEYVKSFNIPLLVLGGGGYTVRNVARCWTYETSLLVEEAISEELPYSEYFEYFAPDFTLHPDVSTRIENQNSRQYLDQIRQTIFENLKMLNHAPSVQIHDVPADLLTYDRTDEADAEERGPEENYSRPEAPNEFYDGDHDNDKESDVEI
Histone deacetylase 3/Nuclear receptor corepressor 2 (HDAC3/NCoR2), sequence (Q9Y618 whole entry, further chain): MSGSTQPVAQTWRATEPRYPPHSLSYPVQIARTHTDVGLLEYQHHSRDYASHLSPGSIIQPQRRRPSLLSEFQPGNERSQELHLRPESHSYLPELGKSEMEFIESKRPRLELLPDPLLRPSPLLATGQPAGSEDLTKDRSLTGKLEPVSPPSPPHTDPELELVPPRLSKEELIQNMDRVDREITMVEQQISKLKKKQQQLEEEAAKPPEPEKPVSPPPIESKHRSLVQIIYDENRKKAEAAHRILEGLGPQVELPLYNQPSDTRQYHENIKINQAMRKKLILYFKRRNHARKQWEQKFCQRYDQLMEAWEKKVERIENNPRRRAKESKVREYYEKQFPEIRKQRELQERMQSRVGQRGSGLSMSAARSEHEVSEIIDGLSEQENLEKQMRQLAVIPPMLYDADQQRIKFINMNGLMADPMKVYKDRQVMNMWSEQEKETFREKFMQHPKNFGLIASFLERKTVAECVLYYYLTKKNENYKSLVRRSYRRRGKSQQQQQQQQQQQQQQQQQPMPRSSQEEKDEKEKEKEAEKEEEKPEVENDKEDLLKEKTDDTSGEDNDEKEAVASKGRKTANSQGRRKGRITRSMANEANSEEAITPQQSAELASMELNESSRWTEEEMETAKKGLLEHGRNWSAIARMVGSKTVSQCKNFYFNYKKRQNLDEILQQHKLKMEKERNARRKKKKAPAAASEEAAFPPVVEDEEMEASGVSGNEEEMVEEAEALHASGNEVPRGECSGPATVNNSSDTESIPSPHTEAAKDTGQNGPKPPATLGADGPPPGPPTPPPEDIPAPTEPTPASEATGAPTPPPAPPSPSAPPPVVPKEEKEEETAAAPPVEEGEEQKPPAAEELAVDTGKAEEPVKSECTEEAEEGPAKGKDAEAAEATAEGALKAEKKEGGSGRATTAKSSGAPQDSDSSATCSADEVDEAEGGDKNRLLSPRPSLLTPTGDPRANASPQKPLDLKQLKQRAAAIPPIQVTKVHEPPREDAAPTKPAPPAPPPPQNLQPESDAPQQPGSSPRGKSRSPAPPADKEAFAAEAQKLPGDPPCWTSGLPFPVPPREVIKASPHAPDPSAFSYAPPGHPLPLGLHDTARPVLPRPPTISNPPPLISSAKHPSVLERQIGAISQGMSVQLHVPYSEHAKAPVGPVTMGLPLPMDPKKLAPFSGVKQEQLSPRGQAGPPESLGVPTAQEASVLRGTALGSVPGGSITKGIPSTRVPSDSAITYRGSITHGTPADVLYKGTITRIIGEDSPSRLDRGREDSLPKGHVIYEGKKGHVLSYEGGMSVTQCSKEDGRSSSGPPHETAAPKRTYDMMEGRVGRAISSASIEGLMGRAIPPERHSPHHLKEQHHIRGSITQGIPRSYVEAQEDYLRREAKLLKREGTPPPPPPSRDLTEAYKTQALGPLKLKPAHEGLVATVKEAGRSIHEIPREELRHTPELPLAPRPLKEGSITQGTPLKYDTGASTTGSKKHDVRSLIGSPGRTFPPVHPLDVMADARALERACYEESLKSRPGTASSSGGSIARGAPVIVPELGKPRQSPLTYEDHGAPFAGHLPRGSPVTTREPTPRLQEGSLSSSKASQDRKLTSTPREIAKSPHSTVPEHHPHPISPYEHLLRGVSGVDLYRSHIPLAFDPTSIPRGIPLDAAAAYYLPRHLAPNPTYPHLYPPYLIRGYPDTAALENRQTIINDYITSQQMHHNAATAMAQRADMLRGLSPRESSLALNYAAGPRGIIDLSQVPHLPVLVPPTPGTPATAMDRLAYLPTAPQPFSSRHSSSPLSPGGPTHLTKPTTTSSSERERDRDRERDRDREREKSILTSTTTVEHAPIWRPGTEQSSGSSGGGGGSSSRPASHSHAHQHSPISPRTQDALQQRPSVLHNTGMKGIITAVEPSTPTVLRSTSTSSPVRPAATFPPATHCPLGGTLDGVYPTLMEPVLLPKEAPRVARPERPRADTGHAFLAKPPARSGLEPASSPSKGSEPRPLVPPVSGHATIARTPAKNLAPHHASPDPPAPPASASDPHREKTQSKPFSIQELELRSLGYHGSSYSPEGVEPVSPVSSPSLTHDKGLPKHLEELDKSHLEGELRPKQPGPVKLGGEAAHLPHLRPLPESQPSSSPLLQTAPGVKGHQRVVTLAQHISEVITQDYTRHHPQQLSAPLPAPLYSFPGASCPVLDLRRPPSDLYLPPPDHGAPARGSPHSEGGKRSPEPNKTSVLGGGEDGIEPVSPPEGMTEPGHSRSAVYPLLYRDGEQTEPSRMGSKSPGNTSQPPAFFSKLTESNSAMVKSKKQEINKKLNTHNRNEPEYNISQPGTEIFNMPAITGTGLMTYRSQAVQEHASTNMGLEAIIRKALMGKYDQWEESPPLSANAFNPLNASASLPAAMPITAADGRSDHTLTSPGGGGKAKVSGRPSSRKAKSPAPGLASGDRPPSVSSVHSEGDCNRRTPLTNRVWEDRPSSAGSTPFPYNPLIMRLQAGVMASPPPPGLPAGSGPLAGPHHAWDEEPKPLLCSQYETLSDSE

| SMILES | IC50 |
| --- | --- |
| O=C(CCCCC[C@H](NC(=O)[C@H]1CCC(=O)N1)C(=O)Nc1ccccc1)NO | 67 nM |
| O=C(CCCCC[C@H](NC(=O)[C@@H]1CCC(=O)N1)C(=O)Nc1ccccc1)NO | 89 nM |
| O=C(CCCCC[C@H](NC(=O)C1CCCNC1=O)C(=O)Nc1ccccc1)NO (stereo partly drawn) | 116 nM |
| O=C(CCCCC[C@H](NC(=O)C1CCNC1=O)C(=O)Nc1ccccc1)NO (stereo partly drawn) | 74 nM |
| O=C(CCCCC[C@H](NC(=O)C1C(=O)NCC1c1ccccc1)C(=O)Nc1ccccc1)NO (stereo partly drawn) | 14 nM |
| O=C(CCCCC[C@H](NC(=O)[C@@H]1CC(=O)N1)C(=O)Nc1ccccc1)NO | 62 nM |
| O=C(CCCCCCC(=O)NC1CCCC1)NO | 3330 nM |
| O=C(CCCCC[C@H](NC(=O)[C@@H]1CCCC(=O)N1)C(=O)NC1CCCC1)NO | 5660 nM |
| O=C(CCCCCCC(=O)NCCc1ccccc1)NO | 3610 nM |

Target: Histone deacetylase 2 (Homo sapiens, UniProt Q92769)
Assay: Inhibition of human HDAC2 using RHKK(Ac) as substrate by fluorimetric analysis
Conditions: not given

Histone deacetylase 2, sequence (Q92769 whole entry): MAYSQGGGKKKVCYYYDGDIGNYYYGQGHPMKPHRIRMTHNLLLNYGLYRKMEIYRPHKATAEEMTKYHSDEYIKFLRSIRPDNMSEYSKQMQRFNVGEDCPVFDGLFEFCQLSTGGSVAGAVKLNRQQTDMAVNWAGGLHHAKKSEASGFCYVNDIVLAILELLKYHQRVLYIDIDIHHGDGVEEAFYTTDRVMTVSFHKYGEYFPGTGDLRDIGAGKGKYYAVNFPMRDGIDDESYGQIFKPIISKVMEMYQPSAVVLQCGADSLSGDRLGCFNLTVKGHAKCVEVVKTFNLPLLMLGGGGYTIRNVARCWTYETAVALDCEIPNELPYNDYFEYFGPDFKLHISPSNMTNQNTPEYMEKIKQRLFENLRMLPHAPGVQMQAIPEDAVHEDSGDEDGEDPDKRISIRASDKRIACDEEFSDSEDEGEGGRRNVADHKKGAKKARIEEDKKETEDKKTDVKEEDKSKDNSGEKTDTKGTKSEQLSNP

| SMILES | IC50 |
| --- | --- |
| O=C(CCCCC[C@H](NC(=O)[C@H]1CCC(=O)N1)C(=O)Nc1ccccc1)NO | 142 nM |
| O=C(CCCCC[C@H](NC(=O)[C@@H]1CCC(=O)N1)C(=O)Nc1ccccc1)NO | 143 nM |
| O=C(CCCCC[C@H](NC(=O)C1CCCNC1=O)C(=O)Nc1ccccc1)NO (stereo partly drawn) | 689 nM |
| O=C(CCCCC[C@H](NC(=O)C1CCNC1=O)C(=O)Nc1ccccc1)NO (stereo partly drawn) | 238 nM |
| O=C(CCCCC[C@H](NC(=O)C1C(=O)NCC1c1ccccc1)C(=O)Nc1ccccc1)NO (stereo partly drawn) | 110 nM |
| O=C(CCCCC[C@H](NC(=O)[C@@H]1CC(=O)N1)C(=O)Nc1ccccc1)NO | 89 nM |
| O=C(CCCCCCC(=O)NC1CCCC1)NO | 4390 nM |
| O=C(CCCCC[C@H](NC(=O)[C@@H]1CCCC(=O)N1)C(=O)NC1CCCC1)NO | 5040 nM |
| O=C(CCCCCCC(=O)NCCc1ccccc1)NO | 5160 nM |

Target: Histone deacetylase 1 (Homo sapiens, UniProt Q13547)
Assay: Inhibition of human HDAC1 using RHKK(Ac) as substrate by fluorimetric analysis
Conditions: not given

Histone deacetylase 1, sequence (Q13547 whole entry): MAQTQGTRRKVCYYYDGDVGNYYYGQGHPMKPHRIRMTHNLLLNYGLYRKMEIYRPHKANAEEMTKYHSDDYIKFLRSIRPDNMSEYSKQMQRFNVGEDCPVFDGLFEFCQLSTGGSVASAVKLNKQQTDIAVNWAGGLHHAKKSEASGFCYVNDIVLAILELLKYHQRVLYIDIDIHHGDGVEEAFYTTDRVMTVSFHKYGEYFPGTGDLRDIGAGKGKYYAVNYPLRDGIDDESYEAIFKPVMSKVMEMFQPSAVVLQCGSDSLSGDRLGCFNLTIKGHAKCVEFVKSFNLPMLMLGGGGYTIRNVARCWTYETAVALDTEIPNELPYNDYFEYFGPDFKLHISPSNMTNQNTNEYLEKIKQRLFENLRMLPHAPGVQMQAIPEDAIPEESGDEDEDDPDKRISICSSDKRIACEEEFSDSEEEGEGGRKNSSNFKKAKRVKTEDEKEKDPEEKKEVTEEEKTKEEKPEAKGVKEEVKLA

| SMILES | IC50 |
| --- | --- |
| O=C(CCCCC[C@H](NC(=O)[C@H]1CCC(=O)N1)C(=O)Nc1ccccc1)NO | 43 nM |
| O=C(CCCCC[C@H](NC(=O)[C@@H]1CCC(=O)N1)C(=O)Nc1ccccc1)NO | 59 nM |
| O=C(CCCCC[C@H](NC(=O)C1CCCNC1=O)C(=O)Nc1ccccc1)NO (stereo partly drawn) | 131 nM |
| O=C(CCCCC[C@H](NC(=O)C1CCNC1=O)C(=O)Nc1ccccc1)NO (stereo partly drawn) | 72 nM |
| O=C(CCCCC[C@H](NC(=O)C1C(=O)NCC1c1ccccc1)C(=O)Nc1ccccc1)NO (stereo partly drawn) | 33 nM |
| O=C(CCCCC[C@H](NC(=O)[C@@H]1CC(=O)N1)C(=O)Nc1ccccc1)NO | 34 nM |
| O=C(CCCCCCC(=O)NC1CCCC1)NO | 1790 nM |
| O=C(CCCCC[C@H](NC(=O)[C@@H]1CCCC(=O)N1)C(=O)NC1CCCC1)NO | 1450 nM |
| O=C(CCCCCCC(=O)NCCc1ccccc1)NO | 1140 nM |
